The values below come from patent US20080026076A1 (priority 2003, published 2008).

The structures appear in SMILES notation.

Series [1] can be described thus: Trial: fasting blood lipids and glucose (Cholestech LDX). The format is in vivo, human. To be noted: after quercetin supplementation compared to placebo (data not shown). As to the method:
During each patient visit whole blood (˜50 μL) was obtained from a digit puncture to determine blood lipids (LDL, VLDL, HDL, total cholesterol) and glucose using a clinical Cholestech LDX blood analyzer (37). Prior to each patient visit, first morning urine was collected, brought to the laboratory, and stored at −80° C. for later analysis of isoprostane concentrations.

In the next series the test system is normotensive individuals. Conditions: 1000 mg/day of quercetin for one month (Conquer et al.); cited from earlier work.
Series [2] deals with mice with surgically induced abdominal aortic constriction. To be noted: oral, 5 day, 120 mg/kg/day (Wang et al., 1999); cited from earlier work.
Series [3] in a line: Plasma antioxidant reserve (PAR). Conditions: for PAR, Endpoint: end of quercetin phase. The format is in vivo, human. As to the method:
Blood samples were collected after blood pressure was measured. Blood was collected by antecubital venipuncture from fasting subjects into sodium heparin tubes (Becton Dickinson, N.J., USA). Collected blood was immediately stored on ice and centrifuged within 10 minutes at 4° C. for 15 minutes at 2500 g as previously described (36). […] Ex-vivo amplification of isoprostanes was accomplished by introducing a source of free radicals (3-morpholinosydnonimine, SIN-1) into the blood plasma to induce oxidation of lipoproteins (39). Uric acid, a major water soluble antioxidant present in plasma, was removed using uricase prior to introduction of SIN-1 so that any protection provided by other antioxidants could be measured. Therefore, PAR measures the non-urate antioxidant capacity, or antioxidant power, of blood.

A short description of series [4]: Ferric reducing antioxidant power (FRAP) of plasma. The format is in vivo, human. Conditions: for FRAP, Endpoint: end of quercetin phase. The procedure: (§1) Blood samples were collected after blood pressure was measured. Blood was collected by antecubital venipuncture from fasting subjects into sodium heparin tubes (Becton Dickinson, N.J., USA). Collected blood was immediately stored on ice and centrifuged within 10 minutes at 4° C. for 15 minutes at 2500 g as previously described (36).
FRAP measures the ability of an antioxidant to reduce Fe^3+ to Fe^2+ (40), and is an index of plasma antioxidant potential in hypertensive patients (41-44). This assay was done as previously described (39). Briefly, plasma samples were diluted 1:2 with phosphate buffered saline, followed by addition of a reagent solution containing 0.8 mmol/L 2,4,6-tri-(2-pyridyl)-s-tirazine and 1.7 mmol/l FeCl3.6-H2O. Samples were then incubated at 37° C. for 15 min and the absorbance at 593 nm was recorded in a plate reader (Molecular Devices, Spectramax 340 pc).

Series [5] concerns spontaneously hypertensive rats. Kind of series: Blood pressure in spontaneously hypertensive (SH) rats. The format is in vivo, rat. The procedure:
As described herein, this strain is well documented to have normal blood pressure until about 5-6 weeks of age (Makita and Yasuda, 1990). After about 5-6 weeks, the rats suffer from steadily increasing blood pressure from about 6 weeks of age until peaking at about 12-15 weeks of age.
Blood pressure was measured in SHR and SHRQ rats by lightly anesthetizing the animals using ketamine/xylazine (75/3.75 mg/kg i.p.). Rats were prewarmed for 15 minutes on heated platform and blood pressure was measured using a Visitech BP 2000 blood pressure system. Pressure measurements are reported as the average of between 4 and 8 separate measurements taken over a 70 second period. All rats fully recovered within […] after receiving anesthesia.
Blood pressure blood pressure was measured for each group at 6, 7.5, 9 and 10 weeks. Dietary supplement was initiated at 5 weeks and maintained throughout the experiment.
In a separate experiment using SH rats (dietary supplement was likewise initiated at 5 weeks), blood pressure was measured at 17 weeks.

Series [6] can be described thus: Trial: body mass, heart rate, adverse effects. The format is in vivo, human. As to the method: A 14-day washout period separated the two phases. Subjects were randomly assigned to begin either the quercetin or the placebo phase first. […] Clinic visits were conducted on overnight-fasted subjects in the morning hours at the beginning and end of the placebo and quercetin supplementation phases. Subjects were instructed not to exercise prior to their appointments. […] Blood pressure was a primary outcome variable and was obtained at each clinic visit by a trained observer using an Omron random zero automatic blood pressure analyzer as previously described (35). Each participant sat quietly for 5-10 minutes, after which their arm was placed at heart level and blood pressure and pulse rate were determined at least three times in 3-5 minute intervals. If blood pressure varied among these determinations by more than 10 mmHg, three additional trials were performed. The accumulated measurements then were averaged to determine overall systolic and diastolic pressure and pulse rate for each subject. Nearly 1000 patients were interviewed and screened for eligibility. […] From this initial screening, 204 were evaluated in more detail at a subsequent clinic visit to determine if all inclusion/exclusion criteria were met, and that blood pressure was within the study limits (FIG. 6). […]

The next series has as its system PKC. To be noted: cytosol and membrane fraction of cells from thyroid, brain, liver, fibroblasts; μM concentrations of quercetin; cited from earlier work.
A further series has as its system PKC α, βI, ε, δ. Description: PKC isoform activation in left ventricle, Western blots. The format is in vivo, rat. Conditions: between all groups (SH, AAC, SHQ, AACQ). (A western blot detects proteins with antibodies after separation by electrophoresis.)
Series [7] can be described thus: Plasma quercetin in trial subjects (HPLC). The format is in vivo. To be noted: human, oral. The procedure: as §1
Supernatants then were extracted with ethyl acetate and injected into an HPLC Discovery C18 column. The mobile phase was 1% acetic acid (solvent A) and 95% acetonitrile in 1% phosphoric acid (solvent B). The gradient elution was solvent B from 10 to 85% in 20 minutes, holding for 5 minutes before returning back to 10% for conditioning. A visible detector with 365 nm was used.

The mark [8] stands for this setting: both groups of hypertensive subjects.
Where [9] appears, read: 1.5 g/kg chow quercetin from 5 weeks of age, measured at 6 to 10 weeks, vs control diet.

Excerpt for PKC α, βI, ε, δ: Following the experimental period, rats were sacrificed, left ventricles were homogenized, and cytosolic & membrane cell fractions isolated using differential centrifugation as previously described (Jalili et al., 1999). Immunobloting using standard protocols was used to assess PKC distribution. […] Increased abundance in membrane bound fractions is indicative of PKC activation.
Western blotting, transfer and densitometry: Electrophoresis and transfer of proteins to PVDF membranes were done as previously described (18, 19). Primary antibody directed against PKC α, βI, βII, δ, and ε (Santa Cruz Biotechnology, Santa Cruz, Calif.) were incubated overnight at 4° C. in a 1:1000 dilution. Antibodies directed against phospho ERK 1/2, phospho JNK, ph c-Raf (Cell Signal Technology, Beverly, Mass.), and phospho PKC P (Santa Cruz Biotechnology, Santa Cruz, Calif.), were incubated at a 1:1000 dilution for 48 h at 4° C. in 5% BSA Tris buffer with 0.05% Tween-20. Secondary antibody conjugated to horseradish peroxidase (goat anti rabbit, (Cell Signal Technology, Beverly, Mass.)) was incubated for 1 h at 1:10,000 dilution. Signals were visualized by enhanced chemiluminescence (Cell Signal Technology, Beverly, Mass.). Relative band density of immunoblots on film were measured with a scanner using NIH 1.63 image software (National Institutes of Health, Rockville, Md.).

Take `O=c1c(O)c(-c2ccc(O)c(O)c2)oc2cc(O)cc(O)c12` [quercetin, 3,5,7,3′,4′-pentahydroxyflavone]: in [1], the “Fasting blood glucose levels” value is recorded as “unchanged”. Moreover, in the series on normotensive individuals, the blood pressure result is listed as “no changes in blood pressure” and the plasma quercetin concentrations is 427 ± 89 ng/mL. In series [2], the cardiac hypertrophy result is on record as “prevented cardiac hypertrophy”. Besides, the “fasting plasma PAR, quercetin supplementation vs. placebo” value in [3] (setting [8]) is given as “not altered”. Further, in series [3] (prehypertensive (n=10), baseline 279 ± 48), the “PAR, Endpoint” value is 266 ± 32 pg/mL. Further, the “PAR, Endpoint” value in series [3] (stage 1 hypertensive (n=8), baseline 258 ± 55) was determined as 281 ± 74 pg/mL. For the same compound, the “fasting plasma FRAP, quercetin supplementation vs. placebo” value in [4] (setting [8]) is “not altered”. Further, the “FRAP, Endpoint” value in series [4] (prehypertensive (n=10), baseline 1080 ± 48) turned out to be 1106 ± 61 µmol/L. Further, in [4] (stage 1 hypertensive (n=8), baseline 1056 ± 59), the “FRAP, Endpoint” value was 1152 ± 69 µmol/L. For the same compound, the onset of hypertension result in [5] (1.5 g quercetin/kg diet from 5 weeks of age) is on record as “delayed the onset of hypertension”. In addition, in series [5] (setting [9]), the diastolic pressure result was “did not show a statistically significant changed”, the mean arterial pressure result is recorded as “did not show a statistically significant changed” and the systolic blood pressure entry is “decreased systolic blood pressure”. For the same compound, the “blood pressure at 17 weeks” value in [5] (separate experiment, supplement from 5 weeks, control vs quercetin treated) is listed as “No significant difference in blood pressure”. The adverse effects entry in [6] (730 mg quercetin/day, 4 weeks, during the course of the study) is recorded as “No adverse effects”. In [6] (throughout the study (data not shown)), the Heart rate entry is on record as “unchanged”. For the same compound, the PKC activity result in the series with PKC is given as “inhibition of PKC activity”. Further, the “Activation of PKC α, βI, ε, or δ isoforms” value with PKC α, βI, ε, δ was “no significant differences”. The same compound gave a concentration at 1 week after end of supplementation in [7] of 190 ± 9 ng/mL. The compound also yielded a concentration at 4 weeks in series [7] (730 mg/day for 4 weeks, fasted, 235±35 after placebo) of 480 ± 64 ng/mL.
